{"source": "paper PMC7268545", "about": "“Development of a QPatch-Automated Electrophysiology Assay for Identifying TMEM16A Small-Molecule Inhibitors” (Assay and Drug Development Technologies, 2020)", "key": {"TMEM16A": {"target": "T1, TMEM16A (Homo sapiens, UniProt Q5XXA6)", "T1 construct": "expressed in transfected cells; host or cells: HEK293T-derived, doxycycline-inducible", "T1 sequence (Q5XXA6 1-986)": "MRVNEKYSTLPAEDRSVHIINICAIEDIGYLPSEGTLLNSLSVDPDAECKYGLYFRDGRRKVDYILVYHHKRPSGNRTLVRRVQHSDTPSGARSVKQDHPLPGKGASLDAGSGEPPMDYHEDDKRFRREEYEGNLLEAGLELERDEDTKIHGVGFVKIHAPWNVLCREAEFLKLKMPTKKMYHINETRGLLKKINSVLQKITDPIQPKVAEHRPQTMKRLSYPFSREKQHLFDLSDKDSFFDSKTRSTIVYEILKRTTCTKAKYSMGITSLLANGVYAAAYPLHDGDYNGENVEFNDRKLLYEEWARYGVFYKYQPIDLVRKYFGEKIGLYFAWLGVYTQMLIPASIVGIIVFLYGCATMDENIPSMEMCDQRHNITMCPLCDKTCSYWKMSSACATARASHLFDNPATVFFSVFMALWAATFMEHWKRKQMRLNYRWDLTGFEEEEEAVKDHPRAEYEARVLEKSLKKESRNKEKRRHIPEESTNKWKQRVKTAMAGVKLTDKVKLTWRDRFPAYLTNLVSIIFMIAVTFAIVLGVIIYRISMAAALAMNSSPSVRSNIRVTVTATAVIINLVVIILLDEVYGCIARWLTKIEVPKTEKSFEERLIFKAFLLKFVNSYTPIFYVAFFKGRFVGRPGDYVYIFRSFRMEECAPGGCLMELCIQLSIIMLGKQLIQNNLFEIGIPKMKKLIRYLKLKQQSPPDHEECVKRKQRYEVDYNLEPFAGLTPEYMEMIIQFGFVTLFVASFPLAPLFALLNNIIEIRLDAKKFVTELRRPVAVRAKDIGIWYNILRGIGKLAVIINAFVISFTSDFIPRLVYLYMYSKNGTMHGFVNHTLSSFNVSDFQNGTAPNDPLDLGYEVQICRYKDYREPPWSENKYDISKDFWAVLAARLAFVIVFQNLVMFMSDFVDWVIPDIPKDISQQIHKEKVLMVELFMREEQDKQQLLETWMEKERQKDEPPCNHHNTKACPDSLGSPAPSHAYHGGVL", "test": "QPatch-48 assay on HEK293T-derived cell line with doxycycline-induced expression", "format": "cell-based", "settings": "30 μM; expression induced with 10 ng/mL doxycycline", "procedure": "In addition, another cell line that was HEK293T-derived and induced expression of TMEM16A on addition of 10 ng/mL of doxycycline also performed well on the assay. […] These two other cell lines were run on the machine using the predefined parameters that were optimized with the original cells, including the cell preparation protocol. Therefore, it seems that this assay is easily transferable to any cell line expressing TMEM16A."}, "abc isoform of TMEM16A": {"target": "T2, abc isoform of TMEM16A (Homo sapiens, UniProt Q5XXA6, DEL476-501)", "T2 construct": "expressed in transfected cells; host or cells: HEK293T", "T2 sequence (Q5XXA6 with tags, fused parts or gaps isoform Q5XXA6-5 DEL539-564)": "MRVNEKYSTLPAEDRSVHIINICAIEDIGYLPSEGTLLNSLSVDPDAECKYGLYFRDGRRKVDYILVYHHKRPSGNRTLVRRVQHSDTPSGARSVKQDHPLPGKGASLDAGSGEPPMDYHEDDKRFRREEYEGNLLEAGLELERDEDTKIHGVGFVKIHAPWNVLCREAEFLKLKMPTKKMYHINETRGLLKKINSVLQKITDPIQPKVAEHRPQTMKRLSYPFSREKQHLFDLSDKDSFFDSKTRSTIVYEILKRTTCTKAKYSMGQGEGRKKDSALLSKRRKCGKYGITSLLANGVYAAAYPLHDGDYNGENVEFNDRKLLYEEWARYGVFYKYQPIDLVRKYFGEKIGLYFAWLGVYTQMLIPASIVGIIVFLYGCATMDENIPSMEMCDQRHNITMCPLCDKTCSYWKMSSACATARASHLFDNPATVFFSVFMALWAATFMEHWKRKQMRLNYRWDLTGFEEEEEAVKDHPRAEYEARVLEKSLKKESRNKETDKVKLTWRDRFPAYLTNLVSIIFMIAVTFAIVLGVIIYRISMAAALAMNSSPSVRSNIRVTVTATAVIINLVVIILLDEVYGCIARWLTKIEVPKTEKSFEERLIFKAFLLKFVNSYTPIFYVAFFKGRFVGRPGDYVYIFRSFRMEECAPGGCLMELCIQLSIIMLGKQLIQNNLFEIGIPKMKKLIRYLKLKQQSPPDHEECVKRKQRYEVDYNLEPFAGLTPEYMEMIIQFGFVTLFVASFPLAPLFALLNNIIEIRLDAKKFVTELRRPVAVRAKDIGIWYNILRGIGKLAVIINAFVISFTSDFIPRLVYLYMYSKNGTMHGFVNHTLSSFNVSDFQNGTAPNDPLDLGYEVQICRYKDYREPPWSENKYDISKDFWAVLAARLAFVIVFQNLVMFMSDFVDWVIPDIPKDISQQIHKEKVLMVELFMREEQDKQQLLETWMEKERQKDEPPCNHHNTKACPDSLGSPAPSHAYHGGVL", "test": "QPatch-48 assay on HEK293T cell line stably expressing the abc isoform", "format": "cell-based", "settings": "30 μM", "procedure": "Using the QPatch-48, we have developed a robust assay for the assessment of TMEM16A small-molecule inhibitors. Many optimization steps were performed to determine the optimal cell culture conditions, internal calcium level, holding potential and voltage protocol, and maximum duration of the assay. It was necessary to control for the culture conditions of the cells and strictly adhere to the cell preparation procedure to obtain high-quality seals. In addition, while the external solution can be used throughout the day, the internal solution should be replaced every 2 h to ensure that the ATP is fresh. Best practices also require solutions to be made weekly and for the osmolarity and pH to be measured accurately. Having met these conditions, the assay results in large currents, averaging a peak current of 6 nA, while maintaining outward rectification that is characteristic of the TMEM16A channel. The benchmark TMEM16A inhibitors that were tested during the validation efforts generated reproducible and expected IC50 values. […] Another HEK293T cell line that stably expressed the abc isoform of TMEM16A also formed high-quality seals and produced large currents."}}}
{"smiles": "CCc1oc2ccccc2c1C(=O)c1cc(Br)c(O)c(Br)c1", "note": "[Benzbromarone]", "values": [{"measurement": "block of currents", "setting": "TMEM16A", "result": "fully blocked"}, {"measurement": "block of currents", "setting": "abc isoform of TMEM16A", "result": "fully blocked"}]}
